Test results from patent US20120142730A1 (priority 2010, published 2012).

Test system: subjects with relapsing remitting multiple sclerosis (RRMS)
Test: ALLEGRO (MS-LAQ-301) phase III trial: confirmed relapse endpoints
Format: in vivo, human
Design: key to Annualized relapse rate, adjusted mean (SE): ARR = number of relapses divided by total patient exposure
Details: for Annualized relapse rate, adjusted mean (SE): 24-month treatment period
Excerpt: The primary endpoint of the study was the number of confirmed relapses during the double-blind treatment period, which corresponds to the annualized relapse rate (ARR—number of relapses divided by total exposure of all patients). Secondary endpoints included disability as measured by Expanded Disability Status Scale (EDSS) changes confirmed at 3 months, and cumulative number of gadolinium enhancing (GdE) and new/enlarging T2 MRI lesions. Eligible subjects were equally randomized 1:1 into one of the following treatment arms: • 1. […] 21, 2007 (see, page 10, line 5 to page 11, line 3). • 2. Matching placebo for laquinimod arm: one capsule is administered once daily. The primary endpoint was the number of confirmed relapses during the double-blind study period. A relapse was defined as the appearance of one or more new neurological abnormalities or the reappearance of one or more previously observed neurological abnormalities lasting for at least 48 hours and after an improved neurological state for at least 30 days. An event was counted as a relapse if the subject's symptoms were accompanied by observed objective neurological changes consistent with at least one of the following: an increase of at least 0.5 in the EDSS score; an increase of one grade in two or more of the seven functional systems; or an increase of two grades in one functional system. Standardized treatment of relapses was intravenous methylprednisolone 1 g/day for up to five consecutive days based on the treating neurologist's decision. The analysis of the total number of confirmed relapses during the study period is based on baseline adjusted Quasi-Likelihood (over-dispersed) Poisson Regression. Using the Poisson regression with the treatment group as a covariate, the ARR of each group was calculated for the intent-to-treat (ITT) cohort as the total number of confirmed relapses for all patients in each group divided by the total patient years in that group. In addition to the treatment group, the following covariates were included: baseline EDSS score, log of the (prior 2-year number of relapses +1) and country or geographical region.

[1] = 0.6 mg daily oral vs placebo, 24 months
[2] = post-hoc, vs placebo, listed as laquinimod

CCN(C(=O)c1c(O)c2c(Cl)cccc2n(C)c1=O)c1ccccc1 [Laquinimod, laquinimod]
Annualized rate of relapses requiring hospitalization and/or IV steroids, reduction (0.6 mg daily oral vs placebo): 27% reduction | Increase in the time to first relapse (0.6 mg daily oral vs placebo): 28.2% | Time to 1st confirmed relapse: reduction for the risk of 1st confirmed relapse (0.6 mg daily oral vs placebo): 28% reduction for the | Annualized relapse rate, reduction [1]: 23% reduction | Increase in odds to be relapse free [1]: 55% increase odds to | Increase in odds to be relapse free (0.6 mg daily oral vs placebo, 24 months, listed as laquinimod): 55% | Annualized relapse rate, adjusted mean (SE) (0.6 mg daily oral): 0.304 | Annualized relapse rate, adjusted mean (SE) (0.6 mg daily oral, listed as laquinimod): 0.304±0.022 | Annualized rate of relapses requiring hospitalization and/or IV steroids, adjusted mean (0.6 mg daily oral, 24 months): 0.242 | Relapse-free during study, adjusted proportion (0.6 mg daily oral, 24 months): 62.90% | Relapse-free during study, adjusted proportion (0.6 mg daily oral, 24 months, listed as laquinimod): 62.9% | ARR 1st year (post-hoc, 0.6 mg daily oral): 0.343 | ARR for dropouts (post-hoc, 0.6 mg daily oral): 0.640 | Annualized rate of relapses requiring IV steroids (post-hoc, 0.6 mg daily oral): 0.263 | Annualized rate of relapses requiring hospitalization (post-hoc, 0.6 mg daily oral): 0.071 | Relapses with full recovery (EDSS before and after attack) (post-hoc, 0.6 mg daily oral): 0.155 | Relapses with no recovery (EDSS before and after attack) (post-hoc, 0.6 mg daily oral): 0.06 | Unconfirmed relapses (post-hoc, 0.6 mg daily oral): 0.094 | ARR by median relapse duration (post-hoc, relapse duration >34 days (n~100)): 0.964 | ARR by median relapse duration, reduction (post-hoc, relapse duration >34 days (n~100), vs placebo): 1.3% reduction | ARR by median relapse duration (post-hoc, relapse duration ≦34 days): 0.153 | ARR by median relapse duration, reduction (post-hoc, relapse duration ≦34 days, vs placebo): 37% reduction | ARR 1st year, reduction (post-hoc, vs placebo): 24% reduction | ARR for dropouts, reduction (post-hoc, vs placebo): 26% reduction | Relapses requiring IV steroids, reduction (post-hoc, vs placebo): 27% reduction | Relapses requiring hospitalization, reduction (post-hoc, vs placebo): 38% reduction | Relapses with full recovery, reduction (post-hoc, vs placebo): 13% reduction | Relapses with no recovery, reduction (post-hoc, vs placebo): 24% reduction | Unconfirmed relapses, reduction (post-hoc, vs placebo): 17% reduction | Relapses requiring IV steroids, reduction [2]: 27% | Relapses requiring hospitalization, reduction [2]: 38%
